Measurements taken from ChEMBL document CHEMBL1201862, “PubChem BioAssay data set” (2004).
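In this assay, cells in 96-well plates receive the compound at five concentrations for 48 hours. Endpoints are linearly interpolated between the surrounding concentrations. Abbreviation: GI50, concentration required for 50% inhibition of growth.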 Active and inactive are the calls of the source. Rule as the data show it: active = GI50 up to about 1.1 µM and inactive = higher.

Key:
Assay in all cases: DTP human tumour cell line panel, 48 h
RXF 393 = tested on: RXF 393
Malme-3M = tested on: Malme-3M
Hs-578T = tested on: Hs-578T
SNB-19 = tested on: SNB-19
DU-145 = tested on: DU-145
786-0 = tested on: 786-0
OVCAR-3 = tested on: OVCAR-3
SNB-75 = tested on: SNB-75
MCF7 = tested on: MCF7
SF-268 = tested on: SF-268
KM12 = tested on: KM12
MOLT-4 = tested on: MOLT-4
NCI-H522 = tested on: NCI-H522
UACC-62 = tested on: UACC-62
SF-539 = tested on: SF-539
HCC 2998 = tested on: HCC 2998
HT-29 = tested on: HT-29
NCI-H23 = tested on: NCI-H23
TK-10 = tested on: TK-10
OVCAR-4 = tested on: OVCAR-4

Row | SMILES | GI50 (RXF 393) | GI50 (Malme-3M) | GI50 (Hs-578T) | GI50 (SNB-19) | GI50 (DU-145) | GI50 (786-0) | GI50 (OVCAR-3) | GI50 (SNB-75) | GI50 (MCF7) | GI50 (SF-268) | GI50 (KM12) | GI50 (MOLT-4) | GI50 (NCI-H522) | GI50 (UACC-62) | GI50 (SF-539) | GI50 (HCC 2998) | GI50 (HT-29) | GI50 (NCI-H23) | GI50 (TK-10) | GI50 (OVCAR-4)
1 | Oc1cc(-c2cccc(OC(F)(F)F)c2)nc2ccc(N3CCCC3)cc12 | 0.000116 µM (active) | 0.000114 µM (active) | 0.01 µM (active) | 0.00018 µM (active) | 0.000316 µM (active) | 0.00014 µM (active) | < 0.0001 µM (active) | < 0.0001 µM (active) | 0.0337 µM (active) | 0.000306 µM (active) | 0.000129 µM (active) | 0.000335 µM (active) | 0.000376 µM (active) | < 0.0001 µM (active) | 0.000147 µM (active) | 0.000547 µM (active) | 0.000217 µM (active) | 0.0191 µM (active) | 0.00457 µM (active) | –
2 | CN(C)CCCN1c2ccccc2CCc2cc([N+](=O)[O-])ccc21 | 14.2 µM (inactive) | 18.8 µM (inactive) | 31.8 µM (inactive) | 28.6 µM (inactive) | 24.4 µM (inactive) | 24.5 µM (inactive) | 20 µM (inactive) | – | 27.3 µM (inactive) | 20 µM (inactive) | 26.4 µM (inactive) | 26.2 µM (inactive) | 24.5 µM (inactive) | 14.5 µM (inactive) | 24.1 µM (inactive) | 17.7 µM (inactive) | 21.4 µM (inactive) | 26.5 µM (inactive) | 28.5 µM (inactive) | 24.4 µM (inactive)
3 | CC(C)(CC(O)C#N)/[N+]([O-])=[N+](\[O-])C(C)(C)CC(O)C#N (stereo unspecified) | 15.9 µM (inactive) | 21.6 µM (inactive) | 12.2 µM (inactive) | 84.3 µM (inactive) | 30.5 µM (inactive) | 18.2 µM (inactive) | 22.5 µM (inactive) | 23.7 µM (inactive) | 20.7 µM (inactive) | 23.4 µM (inactive) | 30.7 µM (inactive) | 10.3 µM (inactive) | 13.8 µM (inactive) | 16 µM (inactive) | – | 17.2 µM (inactive) | 28.4 µM (inactive) | 25.4 µM (inactive) | 26.7 µM (inactive) | 24.1 µM (inactive)
4 | c1csc(-c2cc(-c3ccsc3)cs2)c1 | 20.6 µM (inactive) | – | 21 µM (inactive) | – | > 100 µM (inactive) | 44.2 µM (inactive) | 27.2 µM (inactive) | > 100 µM (inactive) | 34.8 µM (inactive) | > 100 µM (inactive) | > 100 µM (inactive) | 87.1 µM (inactive) | – | > 100 µM (inactive) | 35.4 µM (inactive) | > 100 µM (inactive) | 41.4 µM (inactive) | 14.9 µM (inactive) | > 100 µM (inactive) | 40.6 µM (inactive)
5 | CSc1nc(=O)c2nc(-c3cccs3)c(-c3cccs3)nc2n1C | 18.7 µM (inactive) | 50.9 µM (inactive) | 35.6 µM (inactive) | 29.8 µM (inactive) | 34.3 µM (inactive) | 30.2 µM (inactive) | – | 18.7 µM (inactive) | 24 µM (inactive) | 37.2 µM (inactive) | > 100 µM (inactive) | > 100 µM (inactive) | 31 µM (inactive) | 41.7 µM (inactive) | – | > 100 µM (inactive) | > 100 µM (inactive) | 55.8 µM (inactive) | > 100 µM (inactive) | 30.7 µM (inactive)
6 | C=CCSC1=N/C(=C\c2cccs2)C(=O)N1CC=C | 16.7 µM (inactive) | > 100 µM (inactive) | > 100 µM (inactive) | > 100 µM (inactive) | 79.3 µM (inactive) | 45.4 µM (inactive) | > 100 µM (inactive) | – | 27.3 µM (inactive) | > 100 µM (inactive) | 40 µM (inactive) | 18.7 µM (inactive) | 49.4 µM (inactive) | 63.2 µM (inactive) | > 100 µM (inactive) | 58.9 µM (inactive) | 32.8 µM (inactive) | 94.8 µM (inactive) | > 100 µM (inactive) | 38.6 µM (inactive)
7 | O=C1CCCc2cc3c(cc21)CCC3C(=O)O (stereo unspecified) | > 100 µM (inactive) | > 100 µM (inactive) | > 100 µM (inactive) | > 100 µM (inactive) | > 100 µM (inactive) | > 100 µM (inactive) | – | > 100 µM (inactive) | > 100 µM (inactive) | > 100 µM (inactive) | > 100 µM (inactive) | > 100 µM (inactive) | > 100 µM (inactive) | > 100 µM (inactive) | > 100 µM (inactive) | > 100 µM (inactive) | > 100 µM (inactive) | > 100 µM (inactive) | > 100 µM (inactive) | > 100 µM (inactive)
8 | CC(C)C(=O)CC(Sc1ccc(N)cc1)c1ccccc1 (stereo unspecified) | 25.9 µM (inactive) | 35.1 µM (inactive) | 21.7 µM (inactive) | 48.5 µM (inactive) | 25.4 µM (inactive) | 28.8 µM (inactive) | 27.6 µM (inactive) | 32.6 µM (inactive) | 18.2 µM (inactive) | 28.5 µM (inactive) | 22.5 µM (inactive) | 25.1 µM (inactive) | 15.8 µM (inactive) | 19 µM (inactive) | 30.5 µM (inactive) | 24.7 µM (inactive) | 27.5 µM (inactive) | 21.9 µM (inactive) | 69.8 µM (inactive) | –
9 | Cn1c2ccccc2n2c(N=O)c(-c3ccccc3)nc12 | 49.3 µM (inactive) | 69.5 µM (inactive) | 70.3 µM (inactive) | 30.1 µM (inactive) | 23.7 µM (inactive) | > 100 µM (inactive) | 30.1 µM (inactive) | 5.08 µM (inactive) | 29 µM (inactive) | > 100 µM (inactive) | 15.2 µM (inactive) | 52.7 µM (inactive) | 57.5 µM (inactive) | 56.5 µM (inactive) | – | 11.7 µM (inactive) | 27.7 µM (inactive) | 18.3 µM (inactive) | 51.8 µM (inactive) | 62.4 µM (inactive)
10 | O=C(O)c1cccc(S(=O)(=O)NN2C(=O)CSC2c2ccccc2Cl)c1 (stereo unspecified) | > 100 µM (inactive) | > 100 µM (inactive) | > 100 µM (inactive) | > 100 µM (inactive) | > 100 µM (inactive) | > 100 µM (inactive) | > 100 µM (inactive) | > 100 µM (inactive) | > 100 µM (inactive) | > 100 µM (inactive) | > 100 µM (inactive) | > 100 µM (inactive) | > 100 µM (inactive) | > 100 µM (inactive) | > 100 µM (inactive) | > 100 µM (inactive) | > 100 µM (inactive) | > 100 µM (inactive) | > 100 µM (inactive) | –
11 | COC(C)(C)/C=C/c1[nH]c2ccccc2c1CC(=O)NCCc1cn(C(c2ccccc2)(c2ccccc2)c2ccccc2)cn1 | 7.16 µM (inactive) | 3.76 µM (inactive) | 7.1 µM (inactive) | 7.5 µM (inactive) | > 31.6 µM (inactive) | 4.72 µM (inactive) | 4.92 µM (inactive) | – | 3.66 µM (inactive) | 7.91 µM (inactive) | 4.22 µM (inactive) | 2.36 µM (inactive) | 3.66 µM (inactive) | 6.44 µM (inactive) | 4.13 µM (inactive) | 0.0272 µM (active) | 2.71 µM (inactive) | 4.41 µM (inactive) | 5.46 µM (inactive) | 4.9 µM (inactive)
12 | O=C1C(CN2CCCCC2)CCC1CN1CCCCC1 (stereo unspecified) | 14.8 µM (inactive) | 17.7 µM (inactive) | > 51.3 µM (inactive) | > 100 µM (inactive) | > 88.5 µM (inactive) | 19.5 µM (inactive) | 17.1 µM (inactive) | > 47.8 µM (inactive) | 21.9 µM (inactive) | 49.8 µM (inactive) | > 54.7 µM (inactive) | 2.22 µM (inactive) | 5.35 µM (inactive) | 17.3 µM (inactive) | 30.6 µM (inactive) | > 44.7 µM (inactive) | 20.9 µM (inactive) | 23.1 µM (inactive) | 17.8 µM (inactive) | –
13 | COc1ccc(CCNC(=S)NC=C2C(=O)c3ccccc3C2=O)cc1OC | > 100 µM (inactive) | > 100 µM (inactive) | 14.8 µM (inactive) | > 100 µM (inactive) | > 100 µM (inactive) | > 100 µM (inactive) | 0.0982 µM (active) | 19.8 µM (inactive) | 89.9 µM (inactive) | > 100 µM (inactive) | > 100 µM (inactive) | 83.9 µM (inactive) | > 100 µM (inactive) | > 100 µM (inactive) | 0.433 µM (active) | > 100 µM (inactive) | > 100 µM (inactive) | > 100 µM (inactive) | – | > 100 µM (inactive)
14 | Clc1ccc(-c2nnc(-c3c(Cl)c(Cl)c(Cl)c(Cl)c3-c3nc4ccccc4[nH]3)o2)cc1 | 40.7 µM (inactive) | > 100 µM (inactive) | > 100 µM (inactive) | – | 78.2 µM (inactive) | 50.4 µM (inactive) | 61.7 µM (inactive) | 68.7 µM (inactive) | 35.1 µM (inactive) | > 100 µM (inactive) | 97.5 µM (inactive) | 27.2 µM (inactive) | 47.9 µM (inactive) | 63.4 µM (inactive) | > 100 µM (inactive) | 59 µM (inactive) | 98.9 µM (inactive) | 45 µM (inactive) | – | 84.9 µM (inactive)
15 | O=C1Nc2cc([N+](=O)[O-])ccc2N/C1=C/C(=O)c1ccc(Cl)cc1 | 3.39 µM (inactive) | 26.3 µM (inactive) | 11.5 µM (inactive) | 11.2 µM (inactive) | 6.71 µM (inactive) | 3.13 µM (inactive) | 20.1 µM (inactive) | 20.1 µM (inactive) | 11.2 µM (inactive) | 11.7 µM (inactive) | 14.4 µM (inactive) | 17 µM (inactive) | – | 14.9 µM (inactive) | 10.7 µM (inactive) | 23.6 µM (inactive) | 15.3 µM (inactive) | 14.2 µM (inactive) | 3.9 µM (inactive) | 20.4 µM (inactive)
